Experimental data as given in patent US20250152585A1, “PHARMACEUTICAL COMPOUND” (Duke Street Bio Limited, priority 2022, published 2025).
Read-outs that look alike come from different tables or passages of the source.

Tests used:
[1] = biological target: T1, full length N-terminally FLAG-tagged PARP1 (Homo sapiens, UniProt P09874); assay: PARP1 probe displacement HTRF assay; settings: for Selectivity: PARP1 over PARP2, ratio Kd (PARP2)/Kd (PARP1); for Kd: read-out: PARP1 HTRF, binned Kd
[2] = biological target: T2, N-terminally FLAG-tagged PARP2 (amino acids 1-583) (Homo sapiens, UniProt Q9UGN5); assay: PARP2 probe displacement HTRF assay; type: binding; settings: binned Kd
T2 construct: N-terminally FLAG-tagged PARP2 (amino acids 1-583)
Method: Data analysis was performed identical as for PARP1.

[3] = biological target: T1, full length N-terminally FLAG-tagged PARP1; assay: PARP1 biochemical DELFIA assay (auto-PARylation); parameters: recombinant full length human N-terminally FLAG-tagged PARP1
[4] = binned IC50, PARP1 biochemical DELFIA assay
[5] = binned IC50, biochemical auto-PARylation assay

T2 sequence (Q9UGN5 whole entry, the tested form may be a part): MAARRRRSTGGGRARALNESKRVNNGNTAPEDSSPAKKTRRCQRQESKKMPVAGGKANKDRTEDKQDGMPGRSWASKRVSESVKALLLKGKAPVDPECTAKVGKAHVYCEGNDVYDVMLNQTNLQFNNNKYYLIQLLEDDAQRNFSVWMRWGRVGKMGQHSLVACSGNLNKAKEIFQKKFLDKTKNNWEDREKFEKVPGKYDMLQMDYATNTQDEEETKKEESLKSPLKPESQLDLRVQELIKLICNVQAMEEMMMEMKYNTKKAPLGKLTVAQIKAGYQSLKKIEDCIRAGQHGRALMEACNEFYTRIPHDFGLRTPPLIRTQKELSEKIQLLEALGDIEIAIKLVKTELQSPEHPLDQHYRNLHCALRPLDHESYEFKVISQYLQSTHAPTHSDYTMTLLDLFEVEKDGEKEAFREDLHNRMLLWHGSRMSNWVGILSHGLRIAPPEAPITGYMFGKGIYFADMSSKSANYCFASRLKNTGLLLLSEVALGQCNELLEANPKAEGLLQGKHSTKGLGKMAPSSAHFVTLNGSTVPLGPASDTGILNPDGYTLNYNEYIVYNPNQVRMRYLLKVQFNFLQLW
T1 sequence (P09874 whole entry, the tested form may be a part): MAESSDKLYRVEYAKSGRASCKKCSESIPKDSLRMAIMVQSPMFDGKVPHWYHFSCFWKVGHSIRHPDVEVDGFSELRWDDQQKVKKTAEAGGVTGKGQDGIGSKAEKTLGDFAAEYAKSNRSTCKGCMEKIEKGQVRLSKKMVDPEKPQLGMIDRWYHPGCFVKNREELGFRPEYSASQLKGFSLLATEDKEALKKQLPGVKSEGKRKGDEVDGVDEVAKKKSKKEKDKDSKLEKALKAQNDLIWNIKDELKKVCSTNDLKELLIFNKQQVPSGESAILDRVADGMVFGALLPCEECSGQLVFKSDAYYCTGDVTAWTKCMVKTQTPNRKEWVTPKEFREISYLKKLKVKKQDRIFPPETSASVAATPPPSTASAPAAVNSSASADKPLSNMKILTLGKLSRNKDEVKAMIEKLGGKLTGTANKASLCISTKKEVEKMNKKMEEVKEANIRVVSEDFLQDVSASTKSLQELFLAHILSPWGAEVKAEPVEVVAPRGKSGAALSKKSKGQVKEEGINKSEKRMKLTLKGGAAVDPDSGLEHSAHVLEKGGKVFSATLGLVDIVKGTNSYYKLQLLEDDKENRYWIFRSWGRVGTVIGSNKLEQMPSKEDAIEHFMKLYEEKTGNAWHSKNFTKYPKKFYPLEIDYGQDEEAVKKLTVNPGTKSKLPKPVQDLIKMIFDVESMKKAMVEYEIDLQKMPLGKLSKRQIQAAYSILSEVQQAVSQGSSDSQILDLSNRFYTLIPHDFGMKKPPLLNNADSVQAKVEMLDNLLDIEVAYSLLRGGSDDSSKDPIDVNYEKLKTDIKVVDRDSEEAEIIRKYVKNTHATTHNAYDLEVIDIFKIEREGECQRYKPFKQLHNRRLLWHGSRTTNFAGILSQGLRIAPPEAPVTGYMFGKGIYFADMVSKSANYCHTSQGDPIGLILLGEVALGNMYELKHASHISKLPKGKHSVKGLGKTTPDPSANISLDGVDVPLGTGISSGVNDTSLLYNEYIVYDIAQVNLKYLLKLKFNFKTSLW

| Structure (SMILES) | Selectivity ([1]; probe displacement HTRF) | Kd ([1]; PARP1 probe displacement HTRF) | Kd ([2]; PARP2 probe displacement HTRF) | IC50 [3, 4] | Kd ([1]; probe displacement HTRF) | Kd ([2]; probe displacement HTRF) | IC50 [3, 5] |
| --- | --- | --- | --- | --- | --- | --- | --- |
| CNC(=O)c1ccc(N2CCC(N3CCC(c4cc5ncccc5c(=O)[nH]4)C3)CC2)cn1 (single isomer, unassigned) [Compound 218a] | +++ (+++ indicate a value of at least 100) | 10 to 100 nM | > 10000 nM | 10 to 100 nM | – | – | – |
| CNC(=O)c1ccc(N2CCC(N3CCC(c4cc5ncccc5c(=O)[nH]4)C3)CC2)cn1 (single isomer, unassigned) [Compound 218b] | +++ (+++ indicate a value of at least 100) | < 10 nM | 100 to 1000 nM | < 10 nM | – | – | – |
| CNC(=O)c1ccc(N2CCC(N3CCC(c4[nH]c(=O)c5ccccc5c4Cl)C3)CC2)cn1 (single isomer, unassigned) [Compound 219a] | ++ (++ indicates a value of 50 to less than 100) | < 10 nM | 10 to 100 nM | < 10 nM | – | – | – |
| CNC(=O)c1ccc(N2CCC(N3CCC(c4[nH]c(=O)c5ccccc5c4Cl)C3)CC2)cn1 (single isomer, unassigned) [Compound 219b] | +++ (+++ indicate a value of at least 100) | – | – | – | < 10 nM | 100 to 1000 nM | < 10 nM |
| CC(=O)Nc1ccc(N2CCC(N3CCC(c4nc5ccccc5c(=O)[nH]4)C3)CC2)cn1 (single isomer, unassigned) [Compound 220a] | − (− indicates a value of less than 10) | – | – | – | 100 to 1000 nM | 1000 to 10000 nM | 100 to 1000 nM |
| CC(=O)Nc1ccc(N2CCC(N3CCC(c4nc5ccccc5c(=O)[nH]4)C3)CC2)cn1 (single isomer, unassigned) [Compound 220b] | + (+ indicates a value of 10 to less than 50) | – | – | – | 10 to 100 nM | 1000 to 10000 nM | 10 to 100 nM |
| CNC(=O)c1ccc(N2CCC(N3CCC(c4nc5sc(C)c(C)c5c(=O)[nH]4)C3)CC2)cn1 (single isomer, unassigned) [Compound 221a] | + (+ indicates a value of 10 to less than 50) | – | – | – | 10 to 100 nM | 100 to 1000 nM | 10 to 100 nM |
| CNC(=O)c1ccc(N2CCC(N3CCC(c4nc5sc(C)c(C)c5c(=O)[nH]4)C3)CC2)cn1 (single isomer, unassigned) [Compound 221b] | ++ (++ indicates a value of 50 to less than 100) | – | – | – | < 10 nM | 10 to 100 nM | < 10 nM |
| CNC(=O)c1ccc(N2CCC(N3CCC(c4nc5ccc(F)c(F)c5c(=O)[nH]4)C3)CC2)cn1 (single isomer, unassigned) [Compound 222a] | + (+ indicates a value of 10 to less than 50) | – | – | – | < 10 nM | 100 to 1000 nM | < 10 nM |
| CNC(=O)c1ccc(N2CCC(N3CCC(c4nc5ccc(F)c(F)c5c(=O)[nH]4)C3)CC2)cn1 (single isomer, unassigned) [Compound 222b] | +++ (+++ indicate a value of at least 100) | – | – | – | < 10 nM | 10 to 100 nM | < 10 nM |
| CNC(=O)c1ccc(N2CCC(N3CCC(c4cc5ccc(F)cc5c(=O)[nH]4)C3)CC2)c(Cl)n1 (single isomer, unassigned) [Compound 223a] | +++ (+++ indicate a value of at least 100) | – | – | – | < 10 nM | 100 to 1000 nM | < 10 nM |
| CNC(=O)c1cc(C)c(N2CCC(N3CCC(c4nc5ccccc5c(=O)[nH]4)C3)CC2)c(C)n1 (single isomer, unassigned) [Compound 224a] | − (− indicates a value of less than 10) | – | – | – | 1000 to 10000 nM | 1000 to 10000 nM | 100 to 1000 nM |
| CNC(=O)c1cc(C)c(N2CCC(N3CCC(c4nc5ccccc5c(=O)[nH]4)C3)CC2)c(C)n1 (single isomer, unassigned) [Compound 224b] | − (− indicates a value of less than 10) | – | – | – | 100 to 1000 nM | 1000 to 10000 nM | 100 to 1000 nM |
| CNC(=O)c1ccc(N2CCC(N3CCC(c4nc5c(C)scc5c(=O)[nH]4)C3)CC2)cn1 (single isomer, unassigned) [Compound 232a] | − (− indicates a value of less than 10) | – | – | – | 10 to 100 nM | 100 to 1000 nM | 10 to 100 nM |
| CNC(=O)c1cc(Cl)c(N2CCC(N3CCC(c4cc5ccc(F)cc5c(=O)[nH]4)C3)CC2)cn1 (single isomer, unassigned) [Compound 236a] | + (+ indicates a value of 10 to less than 50) | – | – | – | 10 to 100 nM | 100 to 1000 nM | 10 to 100 nM |
| CNC(=O)c1cc(Cl)c(N2CCC(N3CCC(c4cc5ccc(F)cc5c(=O)[nH]4)C3)CC2)cn1 (single isomer, unassigned) [Compound 236b] | + (+ indicates a value of 10 to less than 50) | – | – | – | < 10 nM | 10 to 100 nM | < 10 nM |

| Structure (SMILES) | Selectivity ([1]; probe displacement HTRF) | Kd ([1]; PARP1 probe displacement HTRF) | Kd ([2]; PARP2 probe displacement HTRF) | IC50 [3, 4] | Kd ([1]; probe displacement HTRF) | Kd ([2]; probe displacement HTRF) | IC50 [3, 5] |
| --- | --- | --- | --- | --- | --- | --- | --- |
| CCc1ccc(C2CCN(C3CCN(c4ccc(C(=O)NC)nc4Cl)CC3)C2)[nH]c1=O (single isomer, unassigned) [Compound 239a] | +++ (+++ indicate a value of at least 100) | – | – | – | < 10 nM | > 10000 nM | < 10 nM |
| CNC(=O)c1ccc(N2CCC(N3CCC(c4ccc(CCOC)c(=O)[nH]4)C3)CC2)cn1 (single isomer, unassigned) [Compound 240a] | ++ (++ indicates a value of 50 to less than 100) | – | – | – | 10 to 100 nM | > 10000 nM | 10 to 100 nM |
| CNC(=O)c1ccc(N2CCC(N3CCC(c4ccc(CCOC)c(=O)[nH]4)C3)CC2)cn1 (single isomer, unassigned) [Compound 240b] | − (− indicates a value of less than 10) | – | – | – | 1000 to 10000 nM | > 10000 nM | 1000 to 10000 nM |
| CNC(=O)c1ccc(N2CCC(N3CC4(c5nc6ccccc6c(=O)[nH]5)CCC3C4)CC2)cn1 (single isomer, unassigned) [Compound 245a] | +++ (+++ indicate a value of at least 100) | – | – | – | < 10 nM | 100 to 1000 nM | < 10 nM |
| CNC(=O)c1ccc(N2CCC(N3CC4(c5nc6ccccc6c(=O)[nH]5)CCC3C4)CC2)cn1 (single isomer, unassigned) [Compound 245b] | +++ (+++ indicate a value of at least 100) | – | – | – | 10 to 100 nM | > 10000 nM | 10 to 100 nM |
| CCc1ccc(C2CCN(C3CCN(c4cnc(C(=O)NC)nc4C)CC3)C2)[nH]c1=O (single isomer, unassigned) [Compound 246a] | + (+ indicates a value of 10 to less than 50) | – | – | – | 100 to 1000 nM | > 10000 nM | 100 to 1000 nM |
| CCc1ccc(C2CCN(C3CCN(c4cnc(C(=O)NC)nc4C)CC3)C2)[nH]c1=O (single isomer, unassigned) [Compound 246b] | +++ (+++ indicate a value of at least 100) | – | – | – | < 10 nM | 1000 to 10000 nM | < 10 nM |
| CNC(=O)c1ccc(N2CCC(N3CCC(c4cc5cccc(OC)c5c(=O)[nH]4)C3)CC2)cn1 (single isomer, unassigned) [Compound 249a] | − (− indicates a value of less than 10) | – | – | – | 1000 to 10000 nM | > 10000 nM | 1000 to 10000 nM |
| CNC(=O)c1ccc(N2CCC(N3CCC(c4cc5cccc(OC)c5c(=O)[nH]4)C3)CC2)cn1 (single isomer, unassigned) [Compound 249b] | + (+ indicates a value of 10 to less than 50) | – | – | – | 100 to 1000 nM | > 10000 nM | 100 to 1000 nM |
| CS(=O)(=O)Nc1ccc(N2CCC(N3CCC(c4nc5ccccc5c(=O)[nH]4)C3)CC2)cc1 (single isomer, unassigned) [Compound 250a] | − (− indicates a value of less than 10) | – | – | – | 100 to 1000 nM | 1000 to 10000 nM | 100 to 1000 nM |
| CS(=O)(=O)Nc1ccc(N2CCC(N3CCC(c4nc5ccccc5c(=O)[nH]4)C3)CC2)cc1 (single isomer, unassigned) [Compound 250b] | + (+ indicates a value of 10 to less than 50) | – | – | – | 10 to 100 nM | 100 to 1000 nM | 10 to 100 nM |
| CS(=O)(=O)Nc1ccc(N2CCC(N3CCC(c4cc5ccccc5c(=O)[nH]4)C3)CC2)cc1 (single isomer, unassigned) [Compound 251a] | − (− indicates a value of less than 10) | – | – | – | 100 to 1000 nM | 1000 to 10000 nM | 100 to 1000 nM |
| CS(=O)(=O)Nc1ccc(N2CCC(N3CCC(c4cc5ccccc5c(=O)[nH]4)C3)CC2)cc1 (single isomer, unassigned) [Compound 251b] | + (+ indicates a value of 10 to less than 50) | – | – | – | 10 to 100 nM | 100 to 1000 nM | 10 to 100 nM |
| CS(=O)(=O)Nc1ccc(N2CCC(N3CCC(c4cc5ccccc5c(=O)[nH]4)C3)CC2)cn1 (single isomer, unassigned) [Compound 252a] | − (− indicates a value of less than 10) | – | – | – | 100 to 1000 nM | 1000 to 10000 nM | 100 to 1000 nM |
| CS(=O)(=O)Nc1ccc(N2CCC(N3CCC(c4cc5ccccc5c(=O)[nH]4)C3)CC2)cn1 (single isomer, unassigned) [Compound 252b] | + (+ indicates a value of 10 to less than 50) | – | – | – | 10 to 100 nM | 100 to 1000 nM | 10 to 100 nM |
| CCCc1ccc(C2CCN(C3CCN(c4ccc(C(=O)NC)nc4)CC3)C2)[nH]c1=O (single isomer, unassigned) [Compound 261a] | − (− indicates a value of less than 10) | – | – | – | 1000 to 10000 nM | > 10000 nM | 100 to 1000 nM |
